Structures can show the parent of a compound that is named as a salt.
Columns and labels:
MASP-2 (CCP1-CCP2-SP) = target: T1, MASP-2 (CCP1-CCP2-SP) (Homo sapiens, UniProt O00187); test: Enzymatic assay for MASP-2 inhibitory activity (fluorogenic substrate); assay type: biochemical
T1 construct: 15 μL of Enzyme MASP-2 (CCP1-CCP2-SP) in Assay Buffer
Description: The MASP-2 assay utilizes a fluorogenic substrate, based on the cleavage site for its natural substrate C2. The assay was run at room temperature in an assay buffer containing 20 mM HEPES, pH 7.4, 140 mM NaCl and 0.1% Tween 20. Assay parameters were adjusted such that the assay was linear with respect to time, enzyme, and substrate concentrations. Under the optimized assays conditions, IC50 values were equivalent to Ki values, except in the few cases of “tight binding” inhibitors. Cases of “tight binding” or possible “slow binding” inhibitors were handled by the methods described in Copeland R. A. (2013) Evaluation of Enzyme Inhibitors in Drug Discovery. 2nd Ed., John Wiley and Sons, Inc., Chapters 5-7.
The MASP-2 assay protocol was carried out as follows. Test compounds were serially diluted in DMSO and then 100 nL of each dilution was transferred to the assay plate(s). 10 μL of Assay Buffer was added, followed by 15 μL of Enzyme MASP-2 (CCP1-CCP2-SP) in Assay Buffer. 15 μL of Substrate in Assay Buffer was then added and the mixture was mixed to start the reaction. After 20 min at room temperature, 15 μL of a stop solution (0.1 M acetic acid) was added, the sample was mixed, and the plates were read on a SpectraMax i3x Microplate Reader with the data exported as an Excel file. Each assay plate included a “no inhibitor” (DMSO only) control, a “no enzyme” control, and a reference inhibitor control. % Activity values=100*(average test comp. fluorescence−average “no enzyme” fluorescence)/(average “DMSO only” fluorescence−average “no enzyme” fluorescence). IC50 and Ki replicate values were very reproducible, with values well within ±2-fold.

human α-thrombin = target: T2, human α-thrombin (Homo sapiens, UniProt P00734); test: Enzymatic assay for thrombin (fluorogenic peptide substrate Boc-VPR-AMC); assay type: biochemical
T2 construct: enzyme (human α-thrombin (BioPharm® Lab.)) in assay buffer; purchased BioPharm® Lab
Description: The thrombin assay utilizes a fluorogenic peptide substrate (Boc-VPR-AMC (R&D Systems) and was run at room temperature in an assay buffer containing 20 mM Hepes, pH 7.4, 140 mM NaCl and 0.1% Tween 20. Assay parameters were adjusted such that the assay was linear with respect to time, enzyme, and substrate concentrations. Under these optimized assays conditions, IC50 values were equivalent to Ki values, except in a few cases of “tight binding” inhibitors. Cases of “tight binding” or possible “slow binding” inhibitors were handled by the methods described in Copeland R. A. (2013) Evaluation of Enzyme Inhibitors in Drug Discovery. 2nd Ed. John Wiley and Sons, Inc., Chapters 5-7.
The thrombin assay protocol was carried out as follows. Test compounds were serially diluted in DMSO and then 100 nL of each dilution was transferred to the assay plate(s). 10 μL of Assay Buffer was added, followed by 15 μL of enzyme (human α-thrombin (BioPharm® Lab.)) in assay buffer. 15 μL of substrate in assay buffer was then added and the sample mixed to start the reaction. After 20 min at room temperature, 15 μL of a stop solution (0.1 M acetic acid) was added, the sample was mixed, and the plates were read on a SpectraMax® i3x Microplate Reader with the data exported as Excel files. Each assay plate included a “no inhibitor” (DMSO only) control, a “no enzyme” control, and a reference inhibitor control. % Activity values=100*(ave. test comp. fluorescence−ave. “no enz” fluorescence)/(ave. “DMSO only” fluorescence−ave. “no enz” fluorescence). IC50 and Ki values were very reproducible, with values falling well within ±2-fold.

T1 sequence (O00187 445-686 limits assumed): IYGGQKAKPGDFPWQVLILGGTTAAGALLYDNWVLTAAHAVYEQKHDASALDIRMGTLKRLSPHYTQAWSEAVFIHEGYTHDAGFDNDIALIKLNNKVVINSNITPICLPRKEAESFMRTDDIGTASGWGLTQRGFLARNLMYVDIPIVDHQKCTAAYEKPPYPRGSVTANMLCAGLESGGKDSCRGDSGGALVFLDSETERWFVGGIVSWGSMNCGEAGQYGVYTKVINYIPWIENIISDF
T1 sequence (O00187 287-444 partner limits assumed): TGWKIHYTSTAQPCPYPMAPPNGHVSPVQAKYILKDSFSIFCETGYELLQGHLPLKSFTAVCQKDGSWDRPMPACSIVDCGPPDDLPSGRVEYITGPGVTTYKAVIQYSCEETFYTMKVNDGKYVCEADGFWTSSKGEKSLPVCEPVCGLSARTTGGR

| SMILES | Ki (MASP-2 (CCP1-CCP2-SP)) [nM] | Ki (human α-thrombin) [nM] |
| --- | --- | --- |
| Cc1cc(C)cc(CNc2nc(Cl)c3n(c2=O)[C@H](C(=O)NCc2cc4cnccc4[nH]2)CC3)c1 [Compound 1, (S)—N-((1H-pyrrolo[3,2-c]pyridin-2-yl)methyl)-1-chloro-3-((3,5-dimethylbenzyl)amino)-4-oxo-4,6,7,8-tetrahydropyrrolo[1,2-a]pyrazine-6-carboxamide] | < 500 | 10000 to 25000 |
| COc1cc(C)cc(CNc2nc(Cl)c3n(c2=O)[C@H](C(=O)NCc2cc4cnccc4[nH]2)CC3)c1 [Compound 7, (S)-N-((1H-pyrrolo[3,2-c]pyridin-2-yl)methyl)-1-chloro-3-((3-methoxy-5-methylbenzyl)amino)-4-oxo-4,6,7,8-tetrahydropyrrolo[1,2-a]pyrazine-6-carboxamide] | < 500 | 2500 to 10000 |
| Cc1ccccc1CNc1nc(Cl)c2n(c1=O)[C@H](C(=O)NCc1cc3cnccc3[nH]1)CC2 [Compound 9, (S)-N-((1H-pyrrolo[3,2-c]pyridin-2-yl)methyl)-1-chloro-3-((2-methylbenzyl)amino)-4-oxo-4,6,7,8-tetrahydropyrrolo[1,2-a]pyrazine-6-carboxamide] | < 500 | 2500 to 10000 |
| Cc1ccc(C)c(CNc2nc(Cl)c3n(c2=O)[C@H](C(=O)NCc2cc4cnccc4[nH]2)CC3)c1 [Compound 11, (S)-N-((1H-pyrrolo[3,2-c]pyridin-2-yl)methyl)-1-chloro-3-((2,5-dimethylbenzyl)amino)-4-oxo-4,6,7,8-tetrahydropyrrolo[1,2-a]pyrazine-6-carboxamide] | < 500 | 10000 to 25000 |
| Cc1cccc(CNc2nc(Cl)c3n(c2=O)[C@H](C(=O)NCc2ccc(N)nc2C)CC3)c1F [Compound 12, (S)-N-((6-amino-2-methylpyridin-3-yl)methyl)-1-chloro-3-((2-fluoro-3-methylbenzyl)amino)-4-oxo-4,6,7,8-tetrahydropyrrolo[1,2-a]pyrazine-6-carboxamide] | < 500 | 2500 to 10000 |
| Cc1cccc(CNc2nc(Cl)c3n(c2=O)[C@H](C(=O)NCc2cc4cnccc4[nH]2)CC3)c1F [Compound 13, (S)-N-((1H-pyrrolo[3,2-c]pyridin-2-yl)methyl)-1-chloro-3-((2-fluoro-3-methylbenzyl)amino)-4-oxo-4,6,7,8-tetrahydropyrrolo[1,2-a]pyrazine-6-carboxamide] | < 500 | 10000 to 25000 |
| Cc1cccc(CNc2nc(Cl)c3n(c2=O)[C@H](C(=O)NCc2cc4cnccc4[nH]2)CC3)c1C [Compound 15, (S)-N-((1H-pyrrolo[3,2-c]pyridin-2-yl)methyl)-1-chloro-3-((2,3-dimethylbenzyl)amino)-4-oxo-4,6,7,8-tetrahydropyrrolo[1,2-a]pyrazine-6-carboxamide] | < 500 | 2500 to 10000 |
| Cc1nc(N)ccc1CNC(=O)[C@@H]1CCc2c(Cl)nc(NCc3cccc(C(F)F)c3)c(=O)n21 [Compound 16, (S)-N-((6-amino-2-methylpyridin-3-yl)methyl)-1-chloro-3-((3-(difluoromethyl)benzyl)amino)-4-oxo-4,6,7,8-tetrahydropyrrolo[1,2-a]pyrazine-6-carboxamide] | < 500 | 2500 to 10000 |
| O=C(NCc1cc2cnccc2[nH]1)[C@@H]1CCc2c(Cl)nc(NCc3cccc(C(F)F)c3)c(=O)n21 [Compound 17, (S)-N-((1H-pyrrolo[3,2-c]pyridin-2-yl)methyl)-1-chloro-3-((3-(difluoromethyl)benzyl)amino)-4-oxo-4,6,7,8-tetrahydropyrrolo[1,2-a]pyrazine-6-carboxamide] | < 500 | 10000 to 25000 |
| Cc1nc(N)ccc1CNC(=O)[C@@H]1CCc2c(Cl)nc(NCCC(F)F)c(=O)n21 [Compound 18, (S)-N-((6-amino-2-methylpyridin-3-yl)methyl)-1-chloro-3-((3,3-difluoropropyl)amino)-4-oxo-4,6,7,8-tetrahydropyrrolo[1,2-a]pyrazine-6-carboxamide] | < 500 | 2500 to 10000 |
| O=C(NCc1cc2cnccc2[nH]1)[C@@H]1CCc2c(Cl)nc(NCCC(F)F)c(=O)n21 [Compound 19, (S)-N-((1H-pyrrolo[3,2-c]pyridin-2-yl)methyl)-1-chloro-3-((3,3-difluoropropyl)amino)-4-oxo-4,6,7,8-tetrahydropyrrolo[1,2-a]pyrazine-6-carboxamide] | < 500 | > 25000 |
| COc1ccnc(CNC(=O)[C@@H]2CCc3cnc(NCc4cc(C)cc(F)c4)c(=O)n32)c1F [Compound 190, (S)-N-((3-fluoro-4-methoxypyridin-2-yl)methyl)-3-((3-fluoro-5-methylbenzyl)amino)-4-oxo-4,6,7,8-tetrahydropyrrolo[1,2-a]pyrazine-6-carboxamide trifluoroacetate] | – | 2500 to 10000 |

Further lines, results first:

| Ki (MASP-2 (CCP1-CCP2-SP)) [nM] | Ki (human α-thrombin) [nM] | SMILES |
| --- | --- | --- |
| < 500 | < 500 | Cc1cc(C)cc(CNc2ncc3n(c2=O)[C@H](C(=O)NC(C)c2cc(Cl)ccc2-n2cnnn2)CC3)c1 (mixture of isomers) [Compound 283, (S)—N—((R/S)-1-(5-chloro-2-(1H-tetrazol-1-yl)phenyl)ethyl)-3-((3,5-dimethylbenzyl)amino)-4-oxo-4,6,7,8-tetrahydropyrrolo[1,2-a]pyrazine-6-carboxamide] |
| < 500 | 2500 to 10000 | COCCCCNc1nc(Cl)c2n(c1=O)[C@H](C(=O)NCc1ccc(N)nc1C)CC2 [Compound 2, (S)-N-((6-amino-2-methylpyridin-3-yl)methyl)-1-chloro-3-((4-methoxybutyl)amino)-4-oxo-4,6,7,8-tetrahydropyrrolo[1,2-a]pyrazine-6-carboxamide] |
| < 500 | 2500 to 10000 | CCc1cccc(CNc2nc(Cl)c3n(c2=O)[C@H](C(=O)NCc2cc4cnccc4[nH]2)CC3)c1 [Compound 3, (S)-N-((1H-pyrrolo[3,2-c]pyridin-2-yl)methyl)-1-chloro-3-((3-ethylbenzyl)amino)-4-oxo-4,6,7,8-tetrahydropyrrolo[1,2-a]pyrazine-6-carboxamide] |
| < 500 | 500 to 2500 | CCc1cccc(CNc2nc(Cl)c3n(c2=O)[C@H](C(=O)NCc2ccc(N)nc2C)CC3)c1 [Compound 4] |
| < 500 | 500 to 2500 | Cc1nc(N)ccc1CNC(=O)[C@@H]1CCc2c(Cl)nc(NCc3cccc(CO)c3)c(=O)n21 [Compound 5, (S)-N-((6-amino-2-methylpyridin-3-yl)methyl)-1-chloro-3-((3-(hydroxymethyl)benzyl)amino)-4-oxo-4,6,7,8-tetrahydropyrrolo[1,2-a]pyrazine-6-carboxamide] |
| < 500 | 2500 to 10000 | O=C(NCc1cc2cnccc2[nH]1)[C@@H]1CCc2c(Cl)nc(NCc3cccc(CO)c3)c(=O)n21 [Compound 6, (S)-N-((1H-pyrrolo[3,2-c]pyridin-2-yl)methyl)-1-chloro-3-((3-(hydroxymethyl)benzyl)amino)-4-oxo-4,6,7,8-tetrahydropyrrolo[1,2-a]pyrazine-6-carboxamide] |
| < 500 | 500 to 2500 | COc1cc(C)cc(CNc2nc(Cl)c3n(c2=O)[C@H](C(=O)NCc2ccc(N)nc2C)CC3)c1 [Compound 8, (S)-N-((6-amino-2-methylpyridin-3-yl)methyl)-1-chloro-3-((3-methoxy-5-methylbenzyl)amino)-4-oxo-4,6,7,8-tetrahydropyrrolo[1,2-a]pyrazine-6-carboxamide] |
| < 500 | 500 to 2500 | Cc1ccc(C)c(CNc2nc(Cl)c3n(c2=O)[C@H](C(=O)NCc2ccc(N)nc2C)CC3)c1 [Compound 10, (S)-N-((6-amino-2-methylpyridin-3-yl)methyl)-1-chloro-3-((2,5-dimethylbenzyl)amino)-4-oxo-4,6,7,8-tetrahydropyrrolo[1,2-a]pyrazine-6-carboxamide] |
